What was measured:
[1] = biological target: T1, KCC3 (Homo sapiens, UniProt Q9UHW9); assay: Tl+ flux assay, HEK-293 cells expressing KCC3; assay type: cell-based; details: read-out: concentration at which effects on KCC3 were seen (EC50, FIG. 1G)
T1 construct: expressed in transfected cells; host or cells: HEK-293
T1 sequence (Q9UHW9 1-1150): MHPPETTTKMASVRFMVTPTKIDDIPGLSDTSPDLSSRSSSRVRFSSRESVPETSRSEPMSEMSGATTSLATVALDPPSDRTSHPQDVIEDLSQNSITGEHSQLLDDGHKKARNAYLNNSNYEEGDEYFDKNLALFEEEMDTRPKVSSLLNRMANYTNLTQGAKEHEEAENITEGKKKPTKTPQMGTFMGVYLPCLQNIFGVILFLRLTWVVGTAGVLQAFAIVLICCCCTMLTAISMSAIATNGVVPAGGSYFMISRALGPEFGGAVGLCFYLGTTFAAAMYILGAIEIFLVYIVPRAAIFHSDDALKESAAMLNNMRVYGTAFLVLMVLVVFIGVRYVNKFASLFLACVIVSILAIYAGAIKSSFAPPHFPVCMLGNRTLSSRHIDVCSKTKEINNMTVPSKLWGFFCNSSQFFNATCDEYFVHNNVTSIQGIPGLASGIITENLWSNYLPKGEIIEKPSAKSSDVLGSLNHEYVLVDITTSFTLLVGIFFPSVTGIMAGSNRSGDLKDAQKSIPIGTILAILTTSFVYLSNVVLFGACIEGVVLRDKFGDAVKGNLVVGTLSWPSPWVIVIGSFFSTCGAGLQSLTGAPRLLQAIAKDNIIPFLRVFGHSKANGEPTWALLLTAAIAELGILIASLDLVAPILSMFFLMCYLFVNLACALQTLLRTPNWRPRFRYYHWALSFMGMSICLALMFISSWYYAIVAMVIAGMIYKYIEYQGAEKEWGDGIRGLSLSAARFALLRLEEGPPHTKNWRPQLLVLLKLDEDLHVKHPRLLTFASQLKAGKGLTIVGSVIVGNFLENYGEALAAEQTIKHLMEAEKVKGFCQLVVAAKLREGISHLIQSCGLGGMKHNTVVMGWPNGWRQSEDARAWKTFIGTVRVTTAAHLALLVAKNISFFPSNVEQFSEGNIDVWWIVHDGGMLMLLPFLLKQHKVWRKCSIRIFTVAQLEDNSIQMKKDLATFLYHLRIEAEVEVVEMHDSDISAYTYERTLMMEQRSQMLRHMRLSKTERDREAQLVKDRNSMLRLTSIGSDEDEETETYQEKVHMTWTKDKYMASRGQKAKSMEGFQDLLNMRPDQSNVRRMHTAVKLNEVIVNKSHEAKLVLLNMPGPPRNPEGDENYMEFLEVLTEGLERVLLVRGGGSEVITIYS
Description: FLIPR TI Flux assay. HEK-293 cells were washed with HBSS, and then incubated with loading buffer containing TI sensitive fluorescent dye (https://www.moleculardevices.com), 20 μM bumetanide 20 μM ouabain and 2.5 mM probenecid for 1 h at room temperature (RT) under control conditions or with drugs in the dark using a FlexStation 3 microplate reader (Molecular Devices) and imaged […] for 30 min. Stimulus buffer was added containing 5 mM K^+/0.5 mM Tl^+ and cells were imaged every 1.5 over a 190 second time course The initial rate Tl^+ uptake (Relative Fluorescence Units (RFU) per second) was determined following addition of the stimulus buffer as outlined previously (Conway et al., 2017, supra) (Lee et al., 2022, supra).
Several studies have shown that the activity and plasma membrane accumulation of KCC2 is potentiated via phosphorylation of S940, a process mediated by the activity of protein kinase C and protein phosphatase 1 (Lee et al, 2011, supra; Lee et al., J Biol Chem 282, 29777-29784 (2007); Moore et al., Proc. Natl. Acad. Sci. U.S.A 115, 10166-10171 (2018); Moore et al., Trends Neurosci. 40, 555-571 (2017); Silayeva et al., Proc. Natl. Acad. Sci. U.S.A. 112, 3523-3528 (2015)). […] Compared to KCC2, effects on KCC3, KCC4, and NKCC1 were only seen at concentrations more than 35-fold that of KCC2 (>100 μM) (FIG. 1G).

[2] = system: panel of 144 protein kinases; assay: Protein kinase panel (SelectScreen; Thermofisher); assay type: biochemical; details: 144 protein kinases incl. PKC isoforms, OSR1, SPAK, WNK
Description: Aliquots of HEK-293 cells expressing, KCC2 were exposed to 30 μM SSA, heated from 37-55° C. The remaining level of soluble native KCC2 at each temperature was measured by immunoblotting and normalized to the level seen at 37° C. which was given a value of 1. […] This panel included protein kinase C isoforms, OSR1, SPAK (STK39) and with-no-lysine kinases (WNK), all of which phosphorylate KCC2 on multiple residues to indirectly modify its activity (Kahle et al., 2013, supra; Smalley et al., 2020, supra).

[3] = system: hippocampus; assay: Neuronal cell death in the hippocampus, Compound A with diazepam; assay type: in vivo; details: mice, Compound A and diazepam vs diazepam alone

C[C@@H]1CN(c2nc3c(c(Nc4ccc(C5CCCCC5)cc4)n2)COC3)CCO1 [Compound A, (R)—N-(4-cyclohexylphenyl)-2-(2-methylmorpholino)-5,7-dihydrofuro[3,4-d]pyrimidin-4-amine]
EC50 [1]: > 100 µM
activity of kinase panel [2]: did not modify the activity
neuronal cell death in the hippocampus [3]: significantly reduced
